ChEMBL document CHEMBL4507291 (2021)

What was measured:
[1] = biological target: Casein kinase I isoform gamma-1 (Homo sapiens) (UniProt Q9HCP0); assay: CSNK1G1 (CK1 gamma 1) Kinase screen; conditions: Compound concentration 1.0 uM
[2] = biological target: Tyrosine-protein kinase JAK2 (Homo sapiens) (UniProt O60674); assay: JAK2 Kinase screen; conditions: Compound concentration 1.0 uM
[3] = biological target: Ribosomal protein S6 kinase alpha-5 (Homo sapiens) (UniProt O75582); assay: RPS6KA5 (MSK1) Kinase screen; conditions: Compound concentration 1.0 uM
[4] = biological target: Dual specificity tyrosine-phosphorylation-regulated kinase 1A (Homo sapiens) (UniProt Q13627); assay: DYRK1A Kinase screen; conditions: Compound concentration 1.0 uM
[5] = biological target: Estrogen receptor (Homo sapiens) (UniProt P03372); conditions: Compound concentration 10.0 uM
[6] = biological target: Serine/threonine-protein kinase Nek4 (Homo sapiens) (UniProt P51957); assay: NEK4 Kinase screen; conditions: Compound concentration 1.0 uM
[7] = biological target: Serine/threonine-protein kinase B-raf (Homo sapiens) (UniProt P15056); assay: BRAF Kinase screen; conditions: Compound concentration 1.0 uM
[8] = biological target: 5-hydroxytryptamine receptor 1B (Homo sapiens) (UniProt P28222); assay: Inhibition of Serotonin (5-Hydroxytryptamine) 5-HT1B at 10 µM in the Eurofins-Panlabs radioligand binding assay (Eurofins_assay_271200); conditions: Compound concentration 10.0 uM
[9] = biological target: T1, Tyrosine-protein kinase ITK/TSK (Homo sapiens) (UniProt Q08881); assay: ITK Kinase screen; conditions: Compound concentration 1.0 uM
T1 sequence (whole entry): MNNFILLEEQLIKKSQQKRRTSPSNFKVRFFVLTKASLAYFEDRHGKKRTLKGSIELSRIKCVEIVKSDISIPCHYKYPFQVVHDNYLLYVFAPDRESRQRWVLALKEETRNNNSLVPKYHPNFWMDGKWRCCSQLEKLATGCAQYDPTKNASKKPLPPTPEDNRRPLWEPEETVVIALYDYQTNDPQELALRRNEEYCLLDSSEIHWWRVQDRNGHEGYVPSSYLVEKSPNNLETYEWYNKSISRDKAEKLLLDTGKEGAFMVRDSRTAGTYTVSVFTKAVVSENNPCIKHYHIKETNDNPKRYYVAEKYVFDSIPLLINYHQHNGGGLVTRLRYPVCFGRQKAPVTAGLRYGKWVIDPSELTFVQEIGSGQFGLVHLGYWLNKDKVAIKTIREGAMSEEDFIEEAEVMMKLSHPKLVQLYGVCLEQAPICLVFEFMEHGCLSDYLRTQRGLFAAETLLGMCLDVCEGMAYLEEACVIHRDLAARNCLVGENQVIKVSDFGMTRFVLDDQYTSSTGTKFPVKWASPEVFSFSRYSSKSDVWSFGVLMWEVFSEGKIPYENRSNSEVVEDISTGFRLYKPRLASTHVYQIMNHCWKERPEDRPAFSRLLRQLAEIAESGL

[10] = biological target: Testis-specific serine/threonine-protein kinase 1 (TSSK1B) (Homo sapiens) (UniProt Q9BXA7); assay: STK22D (TSSK1) Kinase screen; conditions: Compound concentration 1.0 uM
[11] = biological target: Substance-K receptor (Homo sapiens) (UniProt P21452); assay: Inhibition of Tachykinin NK2 at 10 µM in the Eurofins-Panlabs radioligand binding assay (Eurofins_assay_255600); set-up: ligand concentration 0.5 nM; conditions: Compound concentration 10.0 uM
[12] = biological target: Adrenomedullin receptor AM1; CALCRL/RAMP2 (Homo sapiens) (UniProt O60895+Q16602); assay: Adrenomedullin AM1 Eurofins-Panlabs radioligand binding assay; format: protein-complex assay; conditions: Compound concentration 10.0 uM
[13] = biological target: Mitogen-activated protein kinase 9 (Homo sapiens) (UniProt P45984); assay: MAPK9 (JNK2) Kinase screen; conditions: Compound concentration 1.0 uM
[14] = biological target: Melanocortin receptor 5 (Homo sapiens) (UniProt P33032); assay: Inhibition of Melanocortin MC5 at 10 µM in the Eurofins-Panlabs radioligand binding assay (Eurofins_assay_251400); set-up: ligand concentration 0.035 nM; conditions: Compound concentration 10.0 uM
[15] = biological target: Serine/threonine-protein kinase MRCK alpha (Homo sapiens) (UniProt Q5VT25); assay: CDC42 BPA (MRCKA) Kinase screen; conditions: Compound concentration 1.0 uM
[16] = biological target: Neuropeptide Y receptor type 1 (Homo sapiens) (UniProt P25929); assay: Inhibition of Neuropeptide Y Y1 at 10 µM in the Eurofins-Panlabs radioligand binding assay (Eurofins_assay_257010); conditions: Compound concentration 10.0 uM
[17] = biological target: Cathepsin G (Homo sapiens) (UniProt P08311); assay: Inhibition of Peptidase, CTSG (Cathepsin G) at 10 µM in the Eurofins-Panlabs enzyme assay (Eurofins_assay_112510); set-up: substrate with concentration; conditions: Compound concentration 10.0 uM
[18] = biological target: T2, Inhibitor of nuclear factor kappa-B kinase subunit epsilon (Homo sapiens) (UniProt Q14164); assay: IKBKE (IKK epsilon) Kinase screen; conditions: Compound concentration 1.0 uM
T2 sequence (whole entry): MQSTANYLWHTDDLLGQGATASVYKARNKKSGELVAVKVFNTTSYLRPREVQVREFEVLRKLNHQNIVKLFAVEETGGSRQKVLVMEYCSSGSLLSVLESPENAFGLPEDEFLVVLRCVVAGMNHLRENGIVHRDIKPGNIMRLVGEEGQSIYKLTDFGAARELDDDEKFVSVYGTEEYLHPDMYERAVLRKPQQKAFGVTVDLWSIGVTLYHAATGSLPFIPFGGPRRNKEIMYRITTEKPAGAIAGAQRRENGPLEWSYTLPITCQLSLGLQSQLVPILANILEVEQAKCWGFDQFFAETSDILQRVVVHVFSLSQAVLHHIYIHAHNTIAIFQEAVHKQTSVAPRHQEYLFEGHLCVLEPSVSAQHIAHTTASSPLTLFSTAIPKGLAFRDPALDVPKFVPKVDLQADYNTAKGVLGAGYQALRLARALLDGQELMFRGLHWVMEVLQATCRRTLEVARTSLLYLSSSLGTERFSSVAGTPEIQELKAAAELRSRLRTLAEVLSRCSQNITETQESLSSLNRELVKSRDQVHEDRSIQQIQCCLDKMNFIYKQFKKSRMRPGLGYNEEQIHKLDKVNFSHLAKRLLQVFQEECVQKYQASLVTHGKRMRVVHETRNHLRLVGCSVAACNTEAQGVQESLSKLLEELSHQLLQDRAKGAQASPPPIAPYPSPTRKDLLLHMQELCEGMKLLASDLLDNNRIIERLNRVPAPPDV

[19] = biological target: Serine/threonine-protein kinase N1 (Homo sapiens) (UniProt Q16512); assay: PKN1 (PRK1) Kinase screen; conditions: Compound concentration 1.0 uM
[20] = biological target: Gastrin/cholecystokinin type B receptor (Homo sapiens) (UniProt P32239); conditions: Compound concentration 10.0 uM
[21] = biological target: RAC-gamma serine/threonine-protein kinase (Homo sapiens) (UniProt Q9Y243); assay: AKT3 (PKB gamma) Kinase screen; conditions: Compound concentration 1.0 uM
[22] = biological target: Sodium-dependent noradrenaline transporter (Homo sapiens, UniProt P23975); assay: Inhibition of Transporter, Norepinephrine (NET) at compound concentration of 10.0 uM in the Eurofins-Panlabs radioligand binding assay (Eurofins_assay_204410); set-up: ligand concentration 0.2 nM, non-specific ligand with concentration 10 uM Desipramine, incubation time 3 h, incubation temperature 4 C
[23] = biological target: Retinoic acid receptor RXR-alpha (Homo sapiens) (UniProt P19793); assay: Retinoid X Receptor RXRalpha Eurofins-Panlabs radioligand binding assay; conditions: Compound concentration 10.0 uM
Sequence of Retinoic acid receptor RXR-alpha (Homo sapiens) (P19793 whole entry): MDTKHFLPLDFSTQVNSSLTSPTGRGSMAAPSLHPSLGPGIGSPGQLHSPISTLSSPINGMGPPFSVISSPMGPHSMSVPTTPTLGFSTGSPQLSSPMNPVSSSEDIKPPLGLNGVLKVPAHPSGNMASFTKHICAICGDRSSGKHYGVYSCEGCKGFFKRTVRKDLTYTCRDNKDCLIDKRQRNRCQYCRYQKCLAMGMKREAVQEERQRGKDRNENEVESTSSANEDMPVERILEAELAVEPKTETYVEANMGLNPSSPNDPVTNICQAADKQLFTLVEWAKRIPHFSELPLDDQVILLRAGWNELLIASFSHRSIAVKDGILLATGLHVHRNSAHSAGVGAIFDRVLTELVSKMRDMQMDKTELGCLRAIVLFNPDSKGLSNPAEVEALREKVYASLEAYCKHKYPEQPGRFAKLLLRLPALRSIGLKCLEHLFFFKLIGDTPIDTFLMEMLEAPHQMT

Sequence of RAC-gamma serine/threonine-protein kinase (Homo sapiens) (Q9Y243 whole entry): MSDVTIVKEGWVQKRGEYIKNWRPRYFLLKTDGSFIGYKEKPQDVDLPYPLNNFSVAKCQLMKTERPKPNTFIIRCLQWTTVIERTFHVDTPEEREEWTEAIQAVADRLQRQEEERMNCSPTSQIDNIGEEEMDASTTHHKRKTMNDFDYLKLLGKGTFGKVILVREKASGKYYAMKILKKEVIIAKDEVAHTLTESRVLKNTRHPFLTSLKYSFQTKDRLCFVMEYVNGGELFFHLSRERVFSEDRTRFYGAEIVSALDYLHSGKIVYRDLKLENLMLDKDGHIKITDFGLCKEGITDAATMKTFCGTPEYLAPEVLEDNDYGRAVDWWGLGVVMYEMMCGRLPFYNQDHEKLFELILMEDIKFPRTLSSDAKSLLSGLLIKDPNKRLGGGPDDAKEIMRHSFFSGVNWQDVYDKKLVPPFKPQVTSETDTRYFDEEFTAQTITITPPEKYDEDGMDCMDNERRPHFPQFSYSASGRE
Sequence of Neuropeptide Y receptor type 1 (Homo sapiens) (P25929 whole entry): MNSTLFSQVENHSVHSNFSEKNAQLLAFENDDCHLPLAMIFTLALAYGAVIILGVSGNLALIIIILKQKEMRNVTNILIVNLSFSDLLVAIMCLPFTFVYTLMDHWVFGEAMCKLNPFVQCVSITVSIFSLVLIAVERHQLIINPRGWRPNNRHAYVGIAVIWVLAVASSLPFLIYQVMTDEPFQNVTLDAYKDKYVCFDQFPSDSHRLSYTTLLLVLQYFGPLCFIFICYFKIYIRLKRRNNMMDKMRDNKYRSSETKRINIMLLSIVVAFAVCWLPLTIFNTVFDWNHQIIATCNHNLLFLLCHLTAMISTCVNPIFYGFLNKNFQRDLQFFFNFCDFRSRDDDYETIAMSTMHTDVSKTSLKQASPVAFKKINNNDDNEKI
Sequence of 5-hydroxytryptamine receptor 1B (Homo sapiens) (P28222 whole entry): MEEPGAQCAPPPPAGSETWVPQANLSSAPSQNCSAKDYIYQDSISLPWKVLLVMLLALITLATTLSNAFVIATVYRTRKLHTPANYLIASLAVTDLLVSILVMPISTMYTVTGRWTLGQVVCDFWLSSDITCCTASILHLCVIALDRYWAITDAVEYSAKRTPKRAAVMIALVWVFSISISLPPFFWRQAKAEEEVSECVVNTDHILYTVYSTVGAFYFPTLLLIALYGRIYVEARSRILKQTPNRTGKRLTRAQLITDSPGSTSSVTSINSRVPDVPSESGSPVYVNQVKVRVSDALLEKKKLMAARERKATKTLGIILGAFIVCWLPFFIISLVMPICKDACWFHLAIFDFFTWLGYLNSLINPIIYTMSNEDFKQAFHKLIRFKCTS
Sequence of Serine/threonine-protein kinase MRCK alpha (Homo sapiens) (Q5VT25 whole entry): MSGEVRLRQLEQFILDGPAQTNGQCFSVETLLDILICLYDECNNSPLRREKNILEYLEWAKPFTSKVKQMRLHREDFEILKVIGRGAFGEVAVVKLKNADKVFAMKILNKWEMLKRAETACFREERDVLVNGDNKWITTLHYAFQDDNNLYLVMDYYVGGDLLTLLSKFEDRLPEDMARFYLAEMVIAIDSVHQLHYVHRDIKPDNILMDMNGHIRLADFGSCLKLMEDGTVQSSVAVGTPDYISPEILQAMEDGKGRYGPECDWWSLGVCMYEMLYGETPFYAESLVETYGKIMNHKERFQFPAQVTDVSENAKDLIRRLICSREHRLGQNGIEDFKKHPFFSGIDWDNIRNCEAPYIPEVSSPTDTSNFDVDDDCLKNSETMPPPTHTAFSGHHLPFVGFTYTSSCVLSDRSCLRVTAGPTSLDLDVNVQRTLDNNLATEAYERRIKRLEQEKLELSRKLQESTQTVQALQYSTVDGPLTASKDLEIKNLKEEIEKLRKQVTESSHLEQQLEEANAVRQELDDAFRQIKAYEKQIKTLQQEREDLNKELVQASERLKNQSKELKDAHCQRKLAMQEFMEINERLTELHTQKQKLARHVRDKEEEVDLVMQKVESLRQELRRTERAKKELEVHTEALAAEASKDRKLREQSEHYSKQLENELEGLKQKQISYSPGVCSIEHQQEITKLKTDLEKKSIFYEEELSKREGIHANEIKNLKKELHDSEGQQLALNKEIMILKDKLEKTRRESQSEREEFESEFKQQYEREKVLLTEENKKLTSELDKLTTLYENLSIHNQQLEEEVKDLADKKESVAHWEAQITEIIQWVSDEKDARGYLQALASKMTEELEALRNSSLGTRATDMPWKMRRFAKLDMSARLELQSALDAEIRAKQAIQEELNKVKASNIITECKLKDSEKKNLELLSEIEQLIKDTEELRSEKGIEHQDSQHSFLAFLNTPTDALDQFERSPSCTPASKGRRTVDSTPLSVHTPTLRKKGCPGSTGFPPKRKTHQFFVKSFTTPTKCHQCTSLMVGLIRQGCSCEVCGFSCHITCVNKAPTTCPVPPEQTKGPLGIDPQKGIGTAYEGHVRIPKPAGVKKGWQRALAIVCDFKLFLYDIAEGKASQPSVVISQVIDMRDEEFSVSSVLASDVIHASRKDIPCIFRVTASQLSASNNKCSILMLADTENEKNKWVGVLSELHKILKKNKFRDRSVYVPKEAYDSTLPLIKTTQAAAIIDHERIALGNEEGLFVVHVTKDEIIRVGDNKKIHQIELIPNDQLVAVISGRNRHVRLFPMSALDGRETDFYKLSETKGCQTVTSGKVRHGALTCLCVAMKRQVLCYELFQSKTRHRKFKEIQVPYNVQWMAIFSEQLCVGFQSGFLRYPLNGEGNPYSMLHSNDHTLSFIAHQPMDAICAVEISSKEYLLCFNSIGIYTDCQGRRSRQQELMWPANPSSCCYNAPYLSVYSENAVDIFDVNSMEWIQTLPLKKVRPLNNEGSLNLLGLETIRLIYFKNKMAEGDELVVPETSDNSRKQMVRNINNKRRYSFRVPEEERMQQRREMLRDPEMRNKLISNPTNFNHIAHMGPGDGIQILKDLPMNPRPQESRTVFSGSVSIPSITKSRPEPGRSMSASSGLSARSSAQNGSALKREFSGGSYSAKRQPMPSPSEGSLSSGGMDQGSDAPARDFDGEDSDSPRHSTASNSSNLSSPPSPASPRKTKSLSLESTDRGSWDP
Sequence of Tyrosine-protein kinase JAK2 (Homo sapiens) (O60674 whole entry): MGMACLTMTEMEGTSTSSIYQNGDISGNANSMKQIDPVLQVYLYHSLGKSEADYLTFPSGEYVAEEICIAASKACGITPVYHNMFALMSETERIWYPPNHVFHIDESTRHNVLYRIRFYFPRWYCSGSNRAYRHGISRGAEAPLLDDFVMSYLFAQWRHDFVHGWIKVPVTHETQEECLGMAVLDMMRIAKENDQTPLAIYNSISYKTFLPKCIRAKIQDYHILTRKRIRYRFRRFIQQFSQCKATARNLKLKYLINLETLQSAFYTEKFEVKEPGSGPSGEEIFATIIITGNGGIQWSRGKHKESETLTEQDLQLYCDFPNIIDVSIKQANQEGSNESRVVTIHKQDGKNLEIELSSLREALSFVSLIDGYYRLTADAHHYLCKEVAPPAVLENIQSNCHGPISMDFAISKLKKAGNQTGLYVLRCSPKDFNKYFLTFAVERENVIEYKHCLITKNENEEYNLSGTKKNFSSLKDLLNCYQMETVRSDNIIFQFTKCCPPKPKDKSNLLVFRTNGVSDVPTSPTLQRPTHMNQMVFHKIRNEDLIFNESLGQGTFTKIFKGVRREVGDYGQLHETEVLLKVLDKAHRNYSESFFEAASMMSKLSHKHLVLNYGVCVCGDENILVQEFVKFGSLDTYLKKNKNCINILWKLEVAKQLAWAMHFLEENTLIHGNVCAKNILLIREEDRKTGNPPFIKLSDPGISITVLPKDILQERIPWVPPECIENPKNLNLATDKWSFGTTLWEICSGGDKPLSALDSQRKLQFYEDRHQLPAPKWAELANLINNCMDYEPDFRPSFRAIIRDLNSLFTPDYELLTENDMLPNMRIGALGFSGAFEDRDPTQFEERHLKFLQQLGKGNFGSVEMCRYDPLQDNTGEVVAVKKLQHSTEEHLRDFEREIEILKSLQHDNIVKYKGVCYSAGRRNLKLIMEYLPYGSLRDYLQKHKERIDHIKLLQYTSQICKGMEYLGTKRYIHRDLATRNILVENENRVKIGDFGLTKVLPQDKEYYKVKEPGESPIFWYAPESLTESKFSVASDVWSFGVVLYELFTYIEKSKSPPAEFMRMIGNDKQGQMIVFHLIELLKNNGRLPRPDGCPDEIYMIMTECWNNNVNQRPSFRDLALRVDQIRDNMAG
Sequence of Testis-specific serine/threonine-protein kinase 1 (TSSK1B) (Homo sapiens) (Q9BXA7 whole entry, looked up): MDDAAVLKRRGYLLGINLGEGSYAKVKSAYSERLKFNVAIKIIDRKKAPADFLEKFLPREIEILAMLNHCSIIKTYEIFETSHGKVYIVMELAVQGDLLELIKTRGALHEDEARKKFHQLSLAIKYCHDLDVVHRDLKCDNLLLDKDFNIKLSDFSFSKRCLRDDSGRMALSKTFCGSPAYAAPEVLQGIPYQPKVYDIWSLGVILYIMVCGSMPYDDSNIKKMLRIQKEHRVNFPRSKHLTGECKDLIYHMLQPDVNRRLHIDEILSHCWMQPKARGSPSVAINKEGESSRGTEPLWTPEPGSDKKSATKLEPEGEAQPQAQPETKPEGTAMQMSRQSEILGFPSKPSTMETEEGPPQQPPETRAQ

Compound: C[C@@H]1CN(c2cc(-c3n[nH]c4ccc(OC5(C)CC5)cc34)ncn2)C[C@H](C)O1 [MLi-2]
- inhibition [1]: -1.82%
- inhibition [2]: 5.78%
- inhibition [3]: 0.435%
- inhibition [4]: 4.36%
- inhibition [5]: 8%
- inhibition [6]: 6.39%
- inhibition [7]: 27.1%
- inhibition [8]: 0%
- inhibition [9]: 2.04%
- inhibition [10]: 15.8%
- inhibition [11]: 27%
- inhibition [12]: -8%
- inhibition [13]: 19.7%
- inhibition [14]: -3%
- inhibition [15]: 2.46%
- inhibition [16]: 0%
- inhibition [17]: 9%
- inhibition [18]: 1.77%
- inhibition [19]: 1.46%
- inhibition [20]: 15%
- inhibition [21]: 7.75%
- Ki [22]: 3.79 µM
- inhibition [23]: 4%
